Measured values taken from patent publication US7998987B2, “Inhibitors of c-Met and uses thereof” (Vertex Pharmaceuticals Incorporated, priority 2005, dated 2011).
Like-named read-outs stand apart in the source and are kept apart here.

Target: c-Met (Homo sapiens, UniProt P08581)
Assay: Ki determination for the inhibition of c-Met kinase activity (standard coupled enzyme system)
Type: biochemical
Outline: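 Continuous coupled-enzyme (PK/LDH, NADH depletion) assay with 80 nM c-Met, 200 μM ATP and 10 μM polyGluTyr in 100 mM HEPES pH 7.5, 10 mM MgCl2, 1.5% DMSO at 30 °C.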

[1] = coupled enzyme system, 200 μM ATP, 10 μM polyGluTyr, 80 nM c-Met, 30° C., read-out: c-Met Ki
[2] = coupled enzyme system, 200 μM ATP, 80 nM c-Met, 30° C., read-out: c-Met Ki

Sequence of c-Met (P08581 25-1390): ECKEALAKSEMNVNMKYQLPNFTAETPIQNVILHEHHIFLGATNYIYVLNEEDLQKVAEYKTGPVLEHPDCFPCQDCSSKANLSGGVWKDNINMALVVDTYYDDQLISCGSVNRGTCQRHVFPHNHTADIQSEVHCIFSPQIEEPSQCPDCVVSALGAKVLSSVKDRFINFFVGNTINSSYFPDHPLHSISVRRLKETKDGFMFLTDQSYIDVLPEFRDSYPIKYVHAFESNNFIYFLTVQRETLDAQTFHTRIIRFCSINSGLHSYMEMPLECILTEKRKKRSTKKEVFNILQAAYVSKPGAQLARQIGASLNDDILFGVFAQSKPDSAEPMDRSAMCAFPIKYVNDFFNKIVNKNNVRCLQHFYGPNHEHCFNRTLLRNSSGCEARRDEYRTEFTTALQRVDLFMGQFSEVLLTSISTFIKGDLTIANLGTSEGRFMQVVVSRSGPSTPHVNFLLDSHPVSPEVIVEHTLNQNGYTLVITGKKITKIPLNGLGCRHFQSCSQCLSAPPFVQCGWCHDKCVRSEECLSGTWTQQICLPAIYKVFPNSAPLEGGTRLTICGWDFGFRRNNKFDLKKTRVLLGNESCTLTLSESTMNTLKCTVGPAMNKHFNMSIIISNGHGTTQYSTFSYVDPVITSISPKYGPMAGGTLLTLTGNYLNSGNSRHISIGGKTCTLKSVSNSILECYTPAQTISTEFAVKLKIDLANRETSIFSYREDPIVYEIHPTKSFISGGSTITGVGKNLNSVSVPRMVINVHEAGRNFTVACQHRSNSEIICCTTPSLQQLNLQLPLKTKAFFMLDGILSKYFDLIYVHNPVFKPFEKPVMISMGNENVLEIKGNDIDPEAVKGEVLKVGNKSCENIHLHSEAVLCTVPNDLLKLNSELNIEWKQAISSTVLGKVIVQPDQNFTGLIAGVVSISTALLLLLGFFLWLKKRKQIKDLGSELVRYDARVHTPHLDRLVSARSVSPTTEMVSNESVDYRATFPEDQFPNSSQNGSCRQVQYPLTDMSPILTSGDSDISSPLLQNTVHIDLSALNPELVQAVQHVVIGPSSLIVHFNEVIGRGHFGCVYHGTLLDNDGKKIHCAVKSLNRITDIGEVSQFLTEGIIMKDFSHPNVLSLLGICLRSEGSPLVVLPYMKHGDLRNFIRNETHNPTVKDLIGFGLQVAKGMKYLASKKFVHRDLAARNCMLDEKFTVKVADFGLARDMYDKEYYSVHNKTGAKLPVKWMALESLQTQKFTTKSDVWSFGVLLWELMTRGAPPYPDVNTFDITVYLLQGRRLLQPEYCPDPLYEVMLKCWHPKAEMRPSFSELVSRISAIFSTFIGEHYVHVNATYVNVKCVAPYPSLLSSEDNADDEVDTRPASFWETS

Ki [1]	Ki [2]	Structure (SMILES)	also measured
100 to 2000 nM	–	Oc1cccc(Cc2nnc3sc(Nc4cc(F)cc(F)c4)nn23)c1 [Compound 124]	–
–	> 2000 nM	O=C(O)c1cc(O)ccc1NCc1nnc2ccc(Nc3cccc(Cl)c3)nn12 [Compound 340]	–
> 2000 nM	–	CCN1CCCC1CNc1ccc2nnc(Cc3ccc(O)cc3)n2n1 (centres unmarked) [Compound 197]	–
–	< 100 nM	C[C@@H](c1ccc(O)cc1)c1nnc2ccc(Nc3cccc(Cl)c3)nn12 [Compound 320]	–
< 100 nM	–	Oc1ccc(Cc2nnc3sc(Nc4ccc(Cl)cc4)nn23)cc1F [Compound 54]	–
100 to 2000 nM	–	c1ccc(-c2ccc3nnc(Cc4ccc5c(c4)OCO5)n3n2)cc1 [Compound 207]	–
100 to 2000 nM	–	FC(F)(F)c1cccc(Nc2ccc3nnc(Cc4ccncc4)n3n2)c1 [Compound 227]	–
–	100 to 2000 nM	CCc1cccc(Nc2ccc3nnc(Cc4ccc(O)c(F)c4)n3n2)c1 [Compound 289]	–
–	< 100 nM	Oc1ccc(Cc2nnc3ccc(Nc4ccc(F)c(Cl)c4)nn23)cc1 [Compound 424]	–
–	100 to 2000 nM	O=C(O)Cc1ccc(C2=Nn3c(Cc4ccc(O)cc4)nnc3SC2)s1 [Compound 539]	–
100 to 2000 nM	–	Oc1ccc(Cc2nnc3sc(Nc4ccccc4Cl)nn23)cc1F [Compound 79]	–
–	100 to 2000 nM	C[C@@H](c1ccc(O)cc1)c1nnc2ccc(Nc3nc4ccccc4s3)nn12 [Compound 499]	–
100 to 2000 nM	–	CN1CCC(Nc2ccc3nnc(Cc4ccc(O)cc4)n3n2)CC1 [Compound 283]	–
100 to 2000 nM	–	COc1ccccc1Nc1nn2c(Cc3ccc(O)c(F)c3)nnc2s1 [Compound 30]	–
–	> 2000 nM	CS(=O)(=O)c1ccc(Cc2nnc3n2N=C(c2ccccc2)CS3)cc1 [Compound 528]	–
–	> 2000 nM	Clc1cccc(Nc2ccc3nnc(CNc4cccc(OCc5ccccc5)c4)n3n2)c1 [Compound 333]	–
100 to 2000 nM	–	Cc1ccc(Nc2nn3c(Cc4ccc(O)cc4)nnc3s2)cc1Cl [Compound 73]	–
–	> 2000 nM	CCN(CC)CC(C)Nc1ccc2nnc(Cc3ccc(O)cc3)n2n1 (centres unmarked) [Compound 311]	–
> 2000 nM	–	O=C(Nc1cccc(Cl)c1)Nc1nn2c(Cc3ccc(O)cc3)nnc2s1 [Compound 112]	–
100 to 2000 nM	–	CCC(C)c1ccc(Nc2ccc3nnc(Cc4ccc(O)cc4)n3n2)cc1 (centres unmarked) [Compound 183]	–
100 to 2000 nM	–	Fc1cc(F)cc(Nc2ccc3nnc(Cc4ccncc4)n3n2)c1 [Compound 254]	–
–	100 to 2000 nM	COc1ccc(NCc2nnc3ccc(Nc4cccc(Cl)c4)nn23)c(O)c1 [Compound 351]	–
–	< 100 nM	Nc1ncccc1OCc1nnc2ccc(Nc3cccc(Cl)c3)nn12 [Compound 413]	–

Ki [1]	Ki [2]	Structure (SMILES)	also measured
–	> 2000 nM	Oc1ccc(Cc2nnc3ccc(Nc4nncs4)nn23)cc1 [Compound 482]	–
> 2000 nM	–	O=C1CCCN1CCCNc1ccc2nnc(Cc3ccc(O)cc3)n2n1 [Compound 199]	–
< 100 nM	–	Fc1cc(F)cc(Nc2ccc3nnc(Cc4ccc5c(c4)OCO5)n3n2)c1 [Compound 253]	–
–	100 to 2000 nM	Oc1ccc(CCc2nnc3ccc(Nc4cccc(Cl)c4)nn23)cc1 [Compound 366]	–
–	> 2000 nM	Oc1ccc2c(ccn2Cc2nnc3ccc(Nc4cccc(Cl)c4)nn23)c1 [Compound 435]	–
–	> 2000 nM	CC(C)Oc1ccc(NCc2nnc3ccc(Nc4cccc(Cl)c4)nn23)cc1 [Compound 393]	–
< 100 nM	–	Clc1cccc(Nc2ccc3nnc(Cc4ccc5c(c4)OCO5)n3n2)c1 [Compound 239]	–
100 to 2000 nM	–	Oc1ccc(Cc2nnc3sc(Nc4ccc(Cl)cc4)nn23)cc1Cl [Compound 55]	–
< 100 nM	–	OCc1cccc(Nc2ccc3nnc(Cc4ccc(O)cc4)n3n2)c1 [Compound 259]	–
> 2000 nM	–	CCc1cccc(Nc2ccc3nnc(Cc4ccncc4)n3n2)c1 [Compound 222]	–
–	> 2000 nM	c1csc(C2=Nn3c(Cc4ccncc4)nnc3SC2)c1 [Compound 545]	–
100 to 2000 nM	–	Fc1cccc(Nc2ccc3nnc(Cc4ccncc4)n3n2)c1 [Compound 220]	–
–	100 to 2000 nM	COc1ccc(Cc2nnc3n2N=C(c2cccs2)CS3)cc1 [Compound 547]	–
–	100 to 2000 nM	CCc1cccc(Nc2ccc3nnc(Cc4ccc(O)c(Cl)c4)n3n2)c1 [Compound 290]	–
< 100 nM	–	Oc1ccc(Cc2nnc3sc(Nc4ccc(Cl)cc4)nn23)cc1 [Compound 52]	–
> 2000 nM	–	Oc1cccc(CCc2nnc3sc(Nc4cccc(F)c4F)nn23)c1 [Compound 121]	–
–	100 to 2000 nM	CCOC(=O)c1sc(Nc2ccc3nnc([C@@H](C)c4ccc(O)cc4)n3n2)nc1C [Compound 513]	–
–	100 to 2000 nM	Fc1ccc(OCc2nnc3ccc(Nc4cccc(Cl)c4)nn23)cn1 [Compound 453]	–
–	> 2000 nM	Fc1ccc(NCc2nnc3ccc(Nc4cccc(Cl)c4)nn23)c(F)c1 [Compound 344]	–
100 to 2000 nM	–	Oc1ccc(Cc2nnc3sc(Nc4cccc(F)c4F)nn23)cc1F [Compound 99]	–
–	100 to 2000 nM	Oc1cccc(OCc2nnc3ccc(Nc4cccc(Cl)c4)nn23)c1 [Compound 409]	–
> 2000 nM	–	COc1ccc(Cc2nnc3ccc(-c4ccccc4)nn23)cc1OC [Compound 206, 3-(3,4-dimethoxybenzyl)-6-phenyl-[1,2,4]triazolo[4,3-b]pyridazine]	–
–	> 2000 nM	Clc1cccc(Nc2ccc3nnc(Cc4noc5ccccc45)n3n2)c1 [Compound 438]	–

Ki [1]	Ki [2]	Structure (SMILES)	also measured
< 100 nM	–	Oc1cccc2c1ccn2Cc1nnc2sc(Nc3cccc(C(F)(F)F)c3)nn12 [Compound 160]	–
< 100 nM	–	COc1ccc(Nc2nn3c(C(C)c4ccc(O)cc4)nnc3s2)cc1 (centres unmarked) [Compound 40]	–
100 to 2000 nM	–	Oc1cccc(Cc2nnc3sc(Nc4cccc(F)c4F)nn23)c1 [Compound 123]	–
–	100 to 2000 nM	CC(=O)N1CCC(Nc2ccc3nnc(Cc4ccc(O)cc4)n3n2)CC1 [Compound 323]	–
> 2000 nM	–	c1coc(-c2nn3c(Cc4ccc5c(c4)OCO5)nnc3s2)c1 [Compound 48]	–
–	100 to 2000 nM	CCOC(=O)N1CCC(Nc2ccc3nnc(Cc4ccc(O)cc4)n3n2)CC1 [Compound 306]	–
100 to 2000 nM	–	Cc1ccc(Nc2nn3c(Cc4ccc(O)cc4)nnc3s2)cc1C [Compound 72]	–
100 to 2000 nM	–	Oc1ccc(CCc2nnc3sc(Nc4cccc(Cl)c4F)nn23)cc1 [Compound 102]	–
–	100 to 2000 nM	C[C@@H](Nc1ccc2nnc(Cc3ccc(O)cc3)n2n1)C(C)(C)C [Compound 309]	–
< 100 nM	–	Oc1ccc(Cc2nnc3ccc(Nc4cc(F)cc(F)c4)nn23)cc1 [Compound 250]	–
–	> 2000 nM	N#Cc1ccc(OCc2nnc3ccc(Nc4cccc(Cl)c4)nn23)c(N)c1 [Compound 430]	–
–	> 2000 nM	NC(=O)c1ccc(NCc2nnc3ccc(Nc4cccc(Cl)c4)nn23)nc1 [Compound 455]	–
–	< 100 nM	Oc1ccc(Cc2nnc3n2N=C(c2ccsc2)CS3)cc1 [Compound 541]	–
–	100 to 2000 nM	C[C@@H](c1ccc(O)cc1)c1nnc2ccc(Nc3ccncn3)nn12 [Compound 498]	–
100 to 2000 nM	–	Clc1cc(Cl)cc(Nc2ccc3nnc(Cc4ccncc4)n3n2)c1 [Compound 247]	–
> 2000 nM	–	COc1cc(Cc2nnc3sc(Nc4cccnc4)nn23)ccc1O [Compound 51]	–
< 100 nM	–	Oc1ccc(Cc2nnc3sc(Nc4cccnc4)nn23)cc1 [Compound 81]	–
–	< 100 nM	Oc1ccc(Cc2nnc3n2N=C(c2ccccc2)CS3)cc1 [Compound 522]	–
–	100 to 2000 nM	NC(=O)c1ccc(NCc2nnc3ccc(Nc4cccc(Cl)c4)nn23)cc1 [Compound 467]	–
100 to 2000 nM	–	COc1ccccc1Nc1nn2c(Cc3ccc4c(c3)OCO4)nnc2s1 [Compound 28]	–
–	> 2000 nM	COCCC(=O)N[C@H]1CCCC[C@@H]1Nc1ccc2nnc([C@@H](C)c3ccc(O)cc3)n2n1 [Compound 449]	–
100 to 2000 nM	–	Oc1cccc(Cc2nnc3sc(Nc4cccc(F)c4)nn23)c1 [Compound 122]	–
–	100 to 2000 nM	COc1ccc(OCc2nnc3ccc(Nc4cccc(Cl)c4)nn23)c(N)c1 [Compound 434]	–

Ki [1]	Ki [2]	Structure (SMILES)	also measured
–	> 2000 nM	Fc1ccc(NCc2nnc3ccc(Nc4cccc(Cl)c4)nn23)cc1F [Compound 341]	–
–	100 to 2000 nM	Clc1cccc(Nc2ccc3nnc(CNc4ccc5c(c4)OCO5)n3n2)c1 [Compound 347]	–
100 to 2000 nM	–	c1cncc(Nc2nn3c(Cc4ccc5c(c4)OCO5)nnc3s2)c1 [Compound 84]	–
–	< 100 nM	Clc1cccc(Nc2ccc3nnc(Cc4ccc5c(c4)CCO5)n3n2)c1 [Compound 355]	–
–	> 2000 nM	CC(=O)Nc1ccc2nnc(Cc3ccc(O)cc3)n2n1 [Compound 396]	–
> 2000 nM	–	O=C(Nc1ccccc1)Nc1nn2c(Cc3ccc(O)cc3)nnc2s1 [Compound 113]	–
–	100 to 2000 nM	CC(C)C(=O)N1CCC(Nc2ccc3nnc(Cc4ccc(O)cc4)n3n2)CC1 [Compound 324]	–
–	< 100 nM	CC(c1ccc(O)cc1)c1nnc2n1N=C(c1ccccc1)CS2 (centres unmarked) [Compound 525]	–
–	–	C[C@@H](c1ccc(OP(=O)(O)O)cc1)c1nnc2sc(Nc3cccc(Cl)c3)nn12 [Compound 170]	Ki: 100 to 2000 nM
> 2000 nM	–	COc1ccc(Cc2nnc3sc(CNC(C)=O)nn23)cc1 [Compound 23]	–
< 100 nM	–	CC1CCCC(Nc2ccc3nnc(Cc4ccc(O)cc4)n3n2)C1 (centres unmarked) [Compound 284]	–
> 2000 nM	–	Oc1ccc(Cc2nnc3ccc(N4CCC(c5ccccc5)C4)nn23)cc1 (centres unmarked) [Compound 201]	–
–	100 to 2000 nM	OCCc1cccc(Nc2ccc3nnc(Cc4ccc5c(c4)OCO5)n3n2)c1 [Compound 301]	–
–	> 2000 nM	Cc1ccc(OCc2nnc3ccc(Nc4cccc(Cl)c4)nn23)cn1 [Compound 372]	–
–	100 to 2000 nM	C[C@@H](c1ccc(O)cc1)c1nnc2ccc(Nc3nncs3)nn12 [Compound 484]	–
> 2000 nM	–	COC(=O)c1ccccc1Nc1nn2c(Cc3ccc(O)cc3)nnc2s1 [Compound 69]	–
–	< 100 nM	COc1ccc(Cc2nnc3ccc(Nc4ccc(F)c(Cl)c4)nn23)cc1 [Compound 425]	–
–	> 2000 nM	Clc1cccc(Nc2ccc3nnc(CNc4cccc(Oc5ccccc5)c4)n3n2)c1 [Compound 334]	–
100 to 2000 nM	–	Fc1cccc(Nc2nn3c(Cn4ccc5ncccc54)nnc3s2)c1 [Compound 134]	–
–	100 to 2000 nM	Oc1ccc(Cc2nnc3ccc(NC4CC4)nn23)cc1 [Compound 329]	–
